The values below come from US9260710B2, “Photocleavable linker” (City of Hope, priority 2012, dated 2016).

Test [1] has as its system EGFP-FKBP-LC8TRAP transfected COS1 cells. Briefly: Endosome dispersion (EEA1 staining) in trap-transfected cells. As to conditions: for time of drug treatment after which maximum dispersion was reached: unchanged with further increase in time; for maximum number of cells with dispersed endosomes: 2 h, dimerizer concentrations greater than 500 nM; for drug concentration at which maximum dispersion is seen: 2 hrs treatment, unchanged with further increase in concentration. Format: cell-based. On the procedure: Cell Culture. COS1 cells were cultured in DMEM (CELLGRO®) supplemented with 10% fetal bovine/calf serum (Omega Scientific). Transfection was performed in 80-90% confluent 24-h cultures of COS1 cells using LIPOFECTAMINE™ 2000 (Invitrogen) and OPTI-MEM™ media (GIBCO®) according to the manufacturer's recommendations. Various concentrations (0 nM to 1000 nM) of AP (Ariad Pharmaceuticals Inc.) and PhAP (as described herein) were added to each experimental wells 24 hr. post transfection and incubated for different periods of time before analyzing the cells. For reversibility of endosome dispersion studies, 500 nM of AP/PhAP were used. In each case, the cells were washed well with PBS and supplemented with fresh media before inducing with UV light (10 mins., 4 W, 350 nm) and allowed to recover for various time period at 37° C., before analysis.
Immunostaining and Microscopy. For immunostaining, transiently transfected COS1 cells were fixed with 3.7% formaldehyde at room temperature for 10 min, and subsequent immunostaining was performed as described previously^[2]. Briefly, COS 1 cells grown on 25-mm coverslips were washed 3× with PBS, treated with 3.7% formaldehyde (Sigma) in PBS for fixation, and permeabilized in 0.5% Triton X-100 (Sigma) in PBS at room temperature for 10 min. Cells were then incubated with blocking buffer containing 4% skimmed milk (fat free) and 0.5% Triton X-100 in PBS. Anti-EEA1 monoclonal antibody was added to label early endosome marker protein at a dilution of 1:100 in the same buffer for 30 min at RT, and the coverslips were washed and incubated with rhodamine-conjugated donkey anti-mouse secondary antibody (1:100). After washing, the coverslips were mounted on slides to visualize the trapping effects. Samples were viewed using an Olympus IX81 automated inverted microscope equipped with water immersion 60× objective. The level of dispersion was quantified by counting 100 cells per coverslip. Each experiment was performed in triplicate. Images were obtained using a Spot RT Slider high-resolution cooled CCD camera equipped to IX81 microscope and Image-Pro software. Images were cropped and processed using Adobe Photoshop 7.0 (Adobe Systems).
To determine if these biochemical results had relevance in cells, we investigated if photocleavage of PhAP could reverse the endosome dispersion phenotype induced by LC8TRAP and AP. First, we established that PhAP behaved in a similar intracellular manner as AP. To this end, we used a green fluorescent protein (GPF) analog of the trap, EGFP-FKBP-LC8TRAP to identify cells that expressed the trap. COS1 cells were transiently transfected with EGFP-FKBP-LC8TRAP for 24 h, after which they were treated with PhAP or AP (0 nM-1000 nM) for 2 h. Cells were then fixed and stained with an early endosome marker 1 (EEA1). The number of cells with dispersed endosomes after treatment with PhAP or AP was indistinguishable. The maximum number of cells with dispersed endosomes (67.5±7.0% for PhAP and 64.1±7.6% for non-photocleavable AP), was obtained at dimerizer concentrations greater than 500 nM. The rate of dispersion was also similar using either dimerizing agent, and no changes were observed past 2 hours. The values obtained for both AP and PhAP are also in agreement with our previous studies. See e.g., Varma et al., 2010 (Id.)

For test [2], the system named is GFP-TcTex1 trap transfected Cos1/Cos7 cells. In words: Organelle dispersion and microtubule array in cells expressing the TcTex1 trap. Format: cell-based. Also on record: dispersion of the three organelle types (early endosomes, lysosomes, Golgi): dose or concentration left out as unconfirmed. The source says: In vivo effect of Dynein LC and IC Traps. As tests for LC function, we evaluated the effects of the traps on early endosome, lysosome, and Golgi distribution, as well as mitotic progression. First, we fused green fluorescent protein (GFP) to the N-terminus of both FKBP-traps to identify transfected cells. Next, we transfected Cos1, Cos7, or HeLa cells with either trap or a GFP-FKBP control and labeled endosomes, lysosomes and Golgi with EEA1, LAMP2 and GM130 markers, respectively (FIGS. 12A-12C). […] The percentage of cells expressing the GFPLC8 or GFP-TcTex1 trap with dispersed endosomes was 14.7±1.5% and 13.3±1.5%, respectively, as compared to 11.7±3.5% and 10.3±3.5% for non-transfected cells and cells that expressed a GFP-FKBP control, respectively. […] After 8 h of treatment with AP20187, we observed greater than 50% dispersion of the three organelle types for each trap.
To ensure the AP20187 concentration was not limiting, we followed the LC8-trap-induced dispersion of lysosomes as a function of AP20187 concentration after 8 h. […] For the TcTex1-trap, we observed efficient endosome, lysosome and Golgi dispersion at AP20187 concentrations of 1 μM or greater.
Kinetic Analysis Separates Dynein Functions. A major purpose for developing these traps is to provide immediate inhibition of protein function and follow the cellular response from this perturbation to gain new insight. Thus, we monitored the fraction of cells with dispersed organelles as a function of time. After induction of dimerization by AP20187, effects on both early endosome and lysosome distribution were detectable at 10 min, and leveled off at ˜2 h (FIGS. 14A-14B). […] The most rapid effect was observed on lysosomes in cells expressing the LC8 trap. In striking contrast, Golgi dispersal using either trap occurred over a much longer time-course, requiring 8 h after induction of dimerization to reach similar levels of dispersion as for endosomes and lysosomes. Twenty-four hours after addition of AP20187, the percentage of cells with dispersed Golgi reached levels greater than 85%.

Where [3] appears, read: 500 nM, time 0.167 Hr (10 min.).
Where [4] appears, read: after induction of dimerization.

Some results are limits rather than exact numbers.

Turning to `CCC(C(=O)N1CCCCC1C(=O)OC(CCc1ccc(OC)c(OC)c1)c1cccc(OCC(=O)NCC(CNC(=O)COc2cccc(C(CCc3ccc(OC)c(OC)c3)OC(=O)C3CCCCN3C(=O)C(CC)c3cc(OC)c(OC)c(OC)c3)c2)CN(C)C)c1)c1cc(OC)c(OC)c(OC)c1` (stereo not drawn) [AP, AP20187], the “Percentage of endosomes dispersion” value turned out to be 44.4 ± 2.4% in test [1] (10 nM, 2 hr. of treatment); 53.0 ± 3.5% in test [1] (20 nM, 2 hr. of treatment); 56.2 ± 1.6% in test [1] (100 nM, 2 hr. of treatment); 64.1 ± 7.6% in test [1] (500 nM, 2 hr. of treatment); 30.2 ± 2.8% in test [1] (500 nM, time 0 Hr); 45.0 ± 2.6% in test [1] (setting [3]). Also, the “Percentage of endosomes dispersion” value is reported as 53.6 ± 6.5% in test [1] (500 nM, time 0.5 Hr); 53.8 ± 2.9% in test [1] (500 nM, time 1 Hr); 69.8 ± 4.3% in test [1] (500 nM, time 2 Hr); 70.9 ± 2.1% in test [1] (500 nM, time 4 Hr); 66.4 ± 2.5% in test [1] (1000 nM, 2 hr. of treatment). For the same compound, the “time of drug treatment after which maximum dispersion was reached” value in test [1] (500 nM) worked out at 2 h. The “maximum number of cells with dispersed endosomes” value in test [1] came to 64.1±7.6%. Also, the “drug concentration at which maximum dispersion is seen” value in test [1] came to 500 nM. Besides, in test [2], the “AP20187 concentrations giving efficient endosome, lysosome and Golgi dispersion” value was at least 1 µM. Further, the “dispersion of the three organelle types (early endosomes, lysosomes, Golgi)” value in test [2] (8 h of treatment) is listed as “greater than 50%”. The “microtubule radial array / cytoskeleton changes” value in test [2] (8 h post-induction) was “No significant changes”. Besides, the “time at which effects on early endosome and lysosome distribution leveled off” value in test [2] (setting [4]) is reported as around 2 h. For the same compound, the “time at which effects on early endosome and lysosome distribution were detectable” value in test [2] (setting [4]) was determined as 10 min. Also, in test [2] (setting [4]), the “time required for Golgi dispersal to reach similar levels as endosomes and lysosomes” value is on record as 8 h. In addition, in test [2] (twenty-four hours after addition), the “percentage of cells with dispersed Golgi” value is “greater than 85%”.
Regarding `CC[C@H](C(=O)N1CCCC[C@H]1C(=O)O[C@H](CCc1ccc(OC)c(OC)c1)c1cccc(OCC(=O)OC(C)c2ccc(C(C)OC(=O)COc3cccc([C@@H](CCc4ccc(OC)c(OC)c4)OC(=O)[C@@H]4CCCCN4C(=O)[C@@H](CC)c4cc(OC)c(OC)c(OC)c4)c3)c([N+](=O)[O-])c2)c1)c1cc(OC)c(OC)c(OC)c1` (stereo partly drawn) [PhAP], the “Percentage of endosomes dispersion” value in test [1] (10 nM, 2 hr. of treatment) was 47.9 ± 8.1%; in test [1] (20 nM, 2 hr. of treatment), 48.0 ± 5.0%; in test [1] (50 nM, 2 hr. of treatment) it was 55.5 ± 1.3%; in test [1] (100 nM, 2 hr. of treatment), 57.5 ± 2.4%; in test [1] (500 nM, 2 hr. of treatment), 67.5 ± 7.0%; in test [1] (500 nM, time 0 Hr) it was 29.0 ± .8%. Further, the “Percentage of endosomes dispersion” value in test [1] (setting [3]) was 47.2 ± 2.5%; in test [1] (500 nM, time 0.5 Hr), 49.1 ± 3.3%; in test [1] (500 nM, time 1 Hr), 57.2 ± 5.2%; in test [1] (500 nM, time 2 Hr), 71.2 ± 2.0%; in test [1] (500 nM, time 4 Hr) it was 69.0 ± 4.9%; in test [1] (1000 nM, 2 hr. of treatment), 67.7 ± 4.9%. In addition, in test [1] (500 nM), the “time of drug treatment after which maximum dispersion was reached” value came out at 2 h. Besides, the “maximum number of cells with dispersed endosomes” value in test [1] is 67.5±7.0%. Also, the “drug concentration at which maximum dispersion is seen” value in test [1] is reported as 500 nM.
